Here are results for 3 compounds from paper PMC6895912 (Cancers, 2019).

Several values for one entry are separate records, joined by “and”; a condition that tells them apart may be missing. Equal values may be shown once. Read-outs that look alike come from different tables or passages of the source.

One experiment has as its system CWR22Rv1 xenografts. As to the kind of experiment: Antitumor efficacy in castration-resistant CWR22Rv1 xenograft model. The experiment is classed as in vivo, male NOD SCID mice. The conditions noted are these: 5 days/week, 16 days. As to the method:
Following the in vitro studies and determination of the PK parameters, we then investigated the relative efficacy. Gal and the NGGAs in vivo using difficult-to-treat castration-resistant CWR22Rv1 xenografts. Given the enhanced IP and PO PK parameters of VNPP414 and VNPP433-3β over Gal, we decided to use lower doses of the new analogs compared to the previous Gal doses (200 mg/kg, IP/PO). Gal (200 mg/kg) served as positive control, while ENZ (25 mg/kg) administered PO was used as negative control. Male NOD SCID mice bearing CWR22Rv1 tumors were treated with vehicle, ENZ, Gal, VNPP414, and VNPP433-3β for 16 days as described in the Methods and Materials Section. […] In contrast, Gal and the NGGAs caused statistically significant tumor growth inhibition (TGI). […] It is notable that VNPP433-3β (at 7.5- and 15-fold lower molar doses) and VNPP414 (at 4-fold lower molar dose) are more efficacious than Gal. In general, no host toxicities were observed, as monitored by changes in animal body weight (Figure 7C).
Figure 7 Effects of Gal, NGGAs and ENZ in an in vivo castration-resistant prostate cancer model. (A) Mice bearing CWR22Rv1 xenografts (5 mice per group) were treated with vehicle, Gal (100 mg/kg/twice daily), VNPP414 (60 mg/kg, once daily), VNPP433-3β (15 or 30 mg/kg, once daily) and ENZ (25 mg.kg, once daily) 5 days per week for 16 days. Tumor volumes were measured twice a week and the tumors were collected. Tumor growth inhibition (TGI) values are indicated at the right of each growth curve, and the error bars are the SEM. Results are represented as means ± SEM. ^# p = ns (not significant vs. vehicle), ^$ p < 0.0272 vs. vehicle, * p < 0.0035 vs. vehicle, ** p < 0.0025 vs. vehicle and *** p < 0.0008 vs. vehicle. (B) Photographed tumors from each group. (C) Mean body weights of mice determined during the study. (D) Western blot analyses of tumor samples from each experimental group at day 16. […] It is left out because vehicle is a control, not a substance.
Male NOD SCID mice 5–6 weeks of age were obtained from University of Maryland School of Medicine Veterinary Resources (Baltimore, MD, USA. Mice were housed under complete aseptic conditions, fed autoclaved pellets and sterile water ad libitum. Following a week of acclimatization, approximately 5 × 10^6 CWR22Rv1 cells were inoculated one flank f mice. Tumor-bearing mice (tumor volume around ~100 mm^3) were randomized into 6 groups (5 mice in each group; compounds formulated in vehicle) and treated as follows: (i) vehicle control (40% β-cyclodextrin in saline, PO.), (ii) ENZ (25 mg/kg, PO, once daily), (iii) Gal (100mg/kg, PO, twice daily), (iv) VNPP414 (60 mg/kg, PO, once daily), (v) VNPP433-3β (15 mg/kg, PO, once daily), and (vi) VNPP433-3β (30 mg/kg, PO, once daily) for 5 days/week. Tumors were measured twice weekly with calipers and tumor volume was calculated by the formula: length × width^2 × 0.5 (mm^3). Animals were also weighed weekly and monitored for general health status and signs of possible toxicity due to treatments. Mice were sacrificed after the indicated periods of treatment and tumors excised. Tumors were divided and either flash frozen in liquid nitrogen or placed in 10% buffered formalin for western blot analysis.

In the next experiment the target is T1, Mnk1 (Homo sapiens, UniProt Q9BUB5).
T1 construct: compound treatments (0–7.5 µM) of CWR22Rv1 cells for 72 h followed by western blot analysis of cells lysates; endogenous in cells; host or cells: CWR22Rv1
T1 sequence (Q9BUB5 whole entry): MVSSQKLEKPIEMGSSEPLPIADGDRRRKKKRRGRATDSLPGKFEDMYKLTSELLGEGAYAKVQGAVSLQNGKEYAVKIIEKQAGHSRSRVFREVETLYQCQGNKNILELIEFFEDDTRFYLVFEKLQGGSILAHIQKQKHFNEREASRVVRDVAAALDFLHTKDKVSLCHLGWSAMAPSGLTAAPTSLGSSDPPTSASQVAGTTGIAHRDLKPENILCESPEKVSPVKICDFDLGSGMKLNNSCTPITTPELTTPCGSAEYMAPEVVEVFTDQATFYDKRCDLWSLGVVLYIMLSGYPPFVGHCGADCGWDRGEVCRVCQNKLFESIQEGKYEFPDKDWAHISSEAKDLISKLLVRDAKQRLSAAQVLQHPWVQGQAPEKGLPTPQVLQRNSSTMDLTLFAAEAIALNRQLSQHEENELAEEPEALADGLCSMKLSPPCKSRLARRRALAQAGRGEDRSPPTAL
Briefly: Protein level decrease by western blot, dose-response in CWR22Rv1 cells. The experiment is classed as cell-based. The note with it: for times more effective (than Gal) in degrading Mnk1: from EC50 values. The text has this:
Figure 4 Impact of Gal and NGGAs on AR/AR-V7 and Mnk1/2-eIF4E signaling pathways. (A) Western blot showing the effects of Gal and VNPT55 (55) on Mnk1, Mnk2, and peIF4E. (B) Western blot showing the effects of VNPP414 (414) and VNPP433-3β (433)) on Mnk1, Mnk2, and peIF4E. (C) Western blot showing dose-dependent effect of VNPP433-3β (433) on Mnk2, BMI-1, and peIF4E in CWR-R1 cells. (D) Western blot showing dose-dependent effect of Gal on Mnk1, Mnk2, BMI-1, and Snail1 in drug-resistant CWR-R1(10E) cells. (E) Western blot showing dose-dependent effect of VNPP433-3β (433) on Mnk1, Mnk2, BMI-1, and Snail1 in drug-resistant CWR-R1(10E) cells. (F) EC50 values (for fAR, ARV-7 and Mnk1) for compounds determined from dose–response curves upon compound treatments (0–7.5 µM) of CWR22Rv1 cells for 72 h followed by western blot analysis of cells lysates. Note: the numbers in parentheses in Figure 4B are concentrations of the agents in µM.
We further determined the effects of lead NGGAs on f-AR, AR-V7 and Mnk1 protein levels in CWR22Rv1 cells. Following agent treatments (0–7.5 µM), the EC50 values were determined from dose–response curves. […] Of note is the finding that although there was no dramatic difference between the agents in terms of their effects on f-AR suppression, there were significant differences in their relative potencies against AR-V7 and Mnk1.
Cells were lysed with radioimmunoprecipitation assay (RIPA) buffer (Sigma, St. Louis, MO, USA), supplemented with 1X protease inhibitors (Roche, Indianapolis, IN, USA), phosphatase inhibitors (Thermo Scientific, Waltham, MA, USA), 1 mmol/L EDTA and 1 mmol/L PMSF (Sigma). Western blot analyses were performed as in Kwegyir-Afful et al., 2015 [2].

In the next experiment the target is fAR (Homo sapiens, UniProt P10275). The description is as above. The experiment is classed as cell-based. The source says:
Figure 4 Impact of Gal and NGGAs on AR/AR-V7 and Mnk1/2-eIF4E signaling pathways. (A) Western blot showing the effects of Gal and VNPT55 (55) on Mnk1, Mnk2, and peIF4E. […] (D) Western blot showing dose-dependent effect of Gal on Mnk1, Mnk2, BMI-1, and Snail1 in drug-resistant CWR-R1(10E) cells. […] Note: the numbers in parentheses in Figure 4B are concentrations of the agents in µM.
We further determined the effects of lead NGGAs on f-AR, AR-V7 and Mnk1 protein levels in CWR22Rv1 cells.
Cells were lysed with radioimmunoprecipitation assay (RIPA) buffer (Sigma, St. Louis, MO, USA), supplemented with 1X protease inhibitors (Roche, Indianapolis, IN, USA), phosphatase inhibitors (Thermo Scientific, Waltham, MA, USA), 1 mmol/L EDTA and 1 mmol/L PMSF (Sigma).

Where [1] appears, read: 0–7.5 µM, 72 h, western blot, read-out: Mnk1 EC50.

fAR, sequence (P10275 whole entry): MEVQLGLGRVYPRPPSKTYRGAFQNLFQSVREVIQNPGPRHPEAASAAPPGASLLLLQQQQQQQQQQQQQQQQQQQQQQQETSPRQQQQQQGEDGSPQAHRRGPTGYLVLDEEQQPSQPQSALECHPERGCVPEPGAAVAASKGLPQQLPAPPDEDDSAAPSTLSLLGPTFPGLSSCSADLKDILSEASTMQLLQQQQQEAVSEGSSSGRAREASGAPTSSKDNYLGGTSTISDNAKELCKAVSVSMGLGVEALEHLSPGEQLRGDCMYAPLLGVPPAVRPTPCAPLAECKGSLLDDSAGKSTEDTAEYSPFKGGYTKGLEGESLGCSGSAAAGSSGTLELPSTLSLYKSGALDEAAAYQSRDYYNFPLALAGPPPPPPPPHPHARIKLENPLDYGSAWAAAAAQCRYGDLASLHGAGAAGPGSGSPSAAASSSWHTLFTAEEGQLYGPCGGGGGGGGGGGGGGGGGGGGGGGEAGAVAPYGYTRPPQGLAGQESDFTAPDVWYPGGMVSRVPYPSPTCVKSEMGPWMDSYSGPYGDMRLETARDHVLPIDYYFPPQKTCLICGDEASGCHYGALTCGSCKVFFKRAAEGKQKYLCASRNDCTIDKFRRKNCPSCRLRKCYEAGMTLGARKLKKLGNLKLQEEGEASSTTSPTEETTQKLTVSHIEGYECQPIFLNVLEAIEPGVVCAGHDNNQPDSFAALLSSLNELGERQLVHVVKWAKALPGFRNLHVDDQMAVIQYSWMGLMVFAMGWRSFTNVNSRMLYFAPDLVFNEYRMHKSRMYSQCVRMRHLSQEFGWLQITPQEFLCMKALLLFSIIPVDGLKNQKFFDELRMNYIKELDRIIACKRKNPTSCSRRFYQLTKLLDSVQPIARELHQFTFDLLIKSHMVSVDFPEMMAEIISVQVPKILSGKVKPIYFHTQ

As for `C[C@]12CC[C@H](O)CC1=CC[C@@H]1[C@@H]2CC[C@]2(C)C(n3cnc4ccccc43)=CC[C@@H]12` [Galeterone], in the experiment on CWR22Rv1 xenografts (200 mg/kg (100 mg/kg PO twice daily), listed as Gal), the “tumor growth inhibition (TGI)” value was 47% and 46.5%. Moreover, the DC50 on Mnk1 (setting [1]) worked out at 5290 ± 90 nM.

With `C[C@]12CC[C@H](OCc3ccncc3)CC1=CCC1C2CC[C@]2(C)C(n3cnc4ccccc43)=CCC12` (some centres unmarked) [VNPP414], the concentration for a half-maximal effect (EC50) at fAR (read-out: fAR EC50, 0–7.5 µM, 72 h) is 840 ± 2 nM. In addition, the “tumor growth inhibition (TGI)” value in the experiment on CWR22Rv1 xenografts (60 mg/kg PO once daily) is 62.8%. Moreover, on Mnk1 (setting [1]), the DC50 was 560 ± 70 nM. Further, the “times more effective (than Gal) in degrading Mnk1” value at Mnk1 came out at 9.4 times.

On to `C[C@]12CC[C@H](n3ccnc3)CC1=CCC1C2CC[C@]2(C)C(n3cnc4ccccc43)=CCC12` (stereo partly drawn) [VNPP433-3β], for which the half-maximal effective concentration (EC50) at fAR (0–7.5 µM, 72 h, read-out: fAR EC50) amounted to 580 ± 2 nM. For the same compound, the “tumor growth inhibition (TGI)” value in the experiment with CWR22Rv1 xenografts (15 mg/kg PO once daily) is 60.5%; in the experiment on CWR22Rv1 xenografts (30 mg/kg PO once daily), 84% and 83.7%. For the same compound, at Mnk1, the “times more effective (than Gal) in degrading Mnk1” value is reported as 66.0 times. For the same compound, the DC50 at Mnk1 (read-out: Mnk1 EC50, 0–7.5 µM, 72 h, western blot) turned out to be 80 nM.
